According to PubChem BioAssay AID248 (DTP/NCI, 2004):
Several values for one entry are separate records, joined by “and”; a condition that tells them apart may be missing. Equal values may be shown once. Toxic doses and inconclusive results are not listed. No stated cut-off is given here; in the data, active means T/C of 150% or more; inactive means T/C below 125%.

Test system: L1210 leukemia ip in BDF1 mice, survival T/C
Assay: NCI In Vivo Anticancer Drug Screen. Data for tumor model L1210 Leukemia (intraperitoneal) in B6D2F1 (BDF1) mice
Details: endpoint: mean survival time, higher = longer survival
Outline: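 Read-out is survival time, reported as the treated-group measurement over the vehicle-control measurement.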

[1] = dose: 100.0 mg/kg/injection, schedule: Q01DX001 (ip), vehicle: Klucel (hydroxypropylcellulose) (HPC)
[2] = dose: 200.0 mg/kg/injection, schedule: Q01DX001 (ip), vehicle: Klucel (hydroxypropylcellulose) (HPC)
[3] = dose: 400.0 mg/kg/injection, schedule: Q01DX001 (ip), vehicle: Klucel (hydroxypropylcellulose) (HPC)
[4] = dose: 100.0 mg/kg/injection, schedule: Q01DX001 (ip), vehicle: saline with Tween-80
[5] = dose: 200.0 mg/kg/injection, schedule: Q01DX001 (ip), vehicle: saline with Tween-80
[6] = dose: 100.0 mg/kg/injection, schedule: Q01DX009 (ip), vehicle: saline with Tween-80
[7] = dose: 200.0 mg/kg/injection, schedule: Q01DX009 (ip), vehicle: saline with Tween-80
[8] = dose: 100.0 mg/kg/injection, schedule: Q01DX009 (ip), vehicle: acetone
[9] = dose: 200.0 mg/kg/injection, schedule: Q01DX009 (ip), vehicle: acetone
[10] = dose: 400.0 mg/kg/injection, schedule: Q01DX009 (ip), vehicle: acetone
[11] = dose: 100.0 mg/kg/injection, schedule: Q01DX001 (ip), vehicle: saline
[12] = dose: 200.0 mg/kg/injection, schedule: Q01DX001 (ip), vehicle: saline
[13] = dose: 400.0 mg/kg/injection, schedule: Q01DX001 (ip), vehicle: saline

Measured: T/C

O=C(/C=C/c1ccccc1)NC(=S)Nc1nccs1
inactive: dose: 100.0 mg/kg/injection, schedule: Q01DX009 (ip), vehicle: carboxymethylcellulose (CMC) 100 % of control and 104 % of control | dose: 100.0 mg/kg/injection, schedule: Q04DX002 (ip), vehicle: carboxymethylcellulose (CMC) 97 % of control and 103 % of control | dose: 100.0 mg/kg/injection, schedule: Q04DX003 (ip), vehicle: carboxymethylcellulose (CMC) 100 % of control | dose: 200.0 mg/kg/injection, schedule: Q01DX009 (ip), vehicle: carboxymethylcellulose (CMC) 100 % of control and 111 % of control | dose: 200.0 mg/kg/injection, schedule: Q04DX002 (ip), vehicle: carboxymethylcellulose (CMC) 99 % of control and 103 % of control | dose: 200.0 mg/kg/injection, schedule: Q04DX003 (ip), vehicle: carboxymethylcellulose (CMC) 96 % of control | dose: 400.0 mg/kg/injection, schedule: Q01DX009 (ip), vehicle: carboxymethylcellulose (CMC) 96 % of control and 102 % of control | dose: 400.0 mg/kg/injection, schedule: Q04DX002 (ip), vehicle: carboxymethylcellulose (CMC) 103 % of control and 87 % of control | dose: 400.0 mg/kg/injection, schedule: Q04DX003 (ip), vehicle: carboxymethylcellulose (CMC) 93 % of control

CC(C)CCn1ccc(=O)[nH]c1=O
inactive: [1] 100 % of control | [2] 98 % of control | [3] 105 % of control

O=C(Nc1ccccc1)P(=O)(O)c1ccccc1
inactive: dose: 62.5 mg/kg/injection, schedule: Q01DX001 (ip), vehicle: Klucel (hydroxypropylcellulose) (HPC) 102 % of control | dose: 125.0 mg/kg/injection, schedule: Q01DX001 (ip), vehicle: Klucel (hydroxypropylcellulose) (HPC) 102 % of control | dose: 250.0 mg/kg/injection, schedule: Q01DX001 (ip), vehicle: Klucel (hydroxypropylcellulose) (HPC) 92 % of control

COC(=O)c1ccccc1C=O
inactive: [4] 102 % of control | [5] 107 % of control

Cc1cccc(C(=O)OCc2ccccc2CN2CCCCC2C)c1 (stereo not given)
inactive: [1] 93 % of control | [2] 93 % of control

NC1CC(C(=O)O)CCC1S (stereo not given)
inactive: dose: 12.5 mg/kg/injection, schedule: Q04DX002 (ip), vehicle: saline 106 % of control | dose: 50.0 mg/kg/injection, schedule: Q04DX002 (ip), vehicle: other 94 % of control | dose: 50.0 mg/kg/injection, schedule: Q04DX002 (ip), vehicle: saline 87 % of control | dose: 100.0 mg/kg/injection, schedule: Q04DX002 (ip), vehicle: other 91 % of control

Cc1cccc(NC(=O)NCC(=O)N/N=C/c2cccc([N+](=O)[O-])c2)n1
inactive: dose: 50.0 mg/kg/injection, schedule: Q01DX009 (ip), vehicle: saline with Tween-80 93 % of control | [6] 90 % of control | [7] 88 % of control

CC[N+](=Cc1ccccc1)C1CCCCC1
inactive: dose: 100.0 mg/kg/injection, schedule: Q01DX009 (ip), vehicle: saline 88 % of control | dose: 100.0 mg/kg/injection, schedule: Q04DX003 (ip), vehicle: saline 100 % of control | dose: 200.0 mg/kg/injection, schedule: Q01DX009 (ip), vehicle: saline 93 % of control | dose: 200.0 mg/kg/injection, schedule: Q04DX003 (ip), vehicle: saline 97 % of control | dose: 400.0 mg/kg/injection, schedule: Q04DX003 (ip), vehicle: saline 108 % of control

CCCCCCCC(N)C(=O)O (stereo not given)
inactive: dose: 100.0 mg/kg/injection, schedule: Q04DX002 (ip), vehicle: gum acacia 95 % of control | dose: 200.0 mg/kg/injection, schedule: Q04DX002 (ip), vehicle: gum acacia 104 % of control | dose: 400.0 mg/kg/injection, schedule: Q04DX002 (ip), vehicle: gum acacia 88 % of control

Cc1cc(Cl)c(C)c(Cl)c1Cl
inactive: dose: 100.0 mg/kg/injection, schedule: Q01DX001 (ip), vehicle: acetone 100 % of control | [8] 92 % of control | dose: 100.0 mg/kg/injection, schedule: Q04DX003 (ip), vehicle: acetone 93 % of control | dose: 200.0 mg/kg/injection, schedule: Q01DX001 (ip), vehicle: acetone 97 % of control | [9] 95 % of control | dose: 200.0 mg/kg/injection, schedule: Q04DX003 (ip), vehicle: acetone 97 % of control | dose: 400.0 mg/kg/injection, schedule: Q01DX001 (ip), vehicle: acetone 90 % of control | [10] 95 % of control | dose: 400.0 mg/kg/injection, schedule: Q04DX003 (ip), vehicle: acetone 92 % of control

CC1(C)N=C(N)N=C(N)N1c1cccc(OCCCOc2ccc(NC(=O)/C=C\C(=O)O)cc2)c1
inactive: [11] 102 % of control | [12] 101 % of control | [13] 102 % of control

CSc1[nH]c2ncnc(N)c2c1C#N
inactive: dose: 100.0 mg/kg/injection, schedule: Q01DX001 (ip), vehicle: other 88 % of control | dose: 200.0 mg/kg/injection, schedule: Q01DX001 (ip), vehicle: other 101 % of control

O=S(=O)(O)CC1(CS(=O)(=O)O)COC1
inactive: [11] 95 % of control | [8] 118 % of control | [12] 95 % of control | [9] 106 % of control | [13] 96 % of control | [10] 95 % of control

Fc1c(F)c(F)c(Oc2c(F)c(F)c(Br)c(F)c2F)c(F)c1F
inactive: [4] 88 % of control | [5] 88 % of control | dose: 400.0 mg/kg/injection, schedule: Q01DX001 (ip), vehicle: saline with Tween-80 88 % of control

CCCCCCCCc1ccc(O)c(Cl)c1
inactive: [6] 95 % of control | [7] 96 % of control

CN1C(C(=O)c2ccc(-c3ccccc3)cc2)C1c1ccccc1 (stereo not given)
inactive: [1] 93 % of control | [2] 97 % of control | [3] 110 % of control

CCNC(=O)SCCSC(=O)NCC
inactive: dose: 100.0 mg/kg/injection, schedule: Q01DX009 (ip), vehicle: other 92 % of control | dose: 200.0 mg/kg/injection, schedule: Q01DX009 (ip), vehicle: other 93 % of control | dose: 400.0 mg/kg/injection, schedule: Q01DX009 (ip), vehicle: other 92 % of control
